Test results taken from patent publication US20240066027A1 (DOMAIN THERAPEUTICS, priority 2020, published 2024).
pIC50: −log10 of the molar value. Counter-ions that a name gives are not always drawn.

Molecular target: T1, human PAR-2 (hPAR-2) receptor expressed in HEK-293 T cells in an endogenous manner (Homo sapiens, UniProt P55085)
T1 construct: human PAR-2 (hPAR-2) receptor expressed in HEK-293 T cells in an endogenous manner; endogenous in cells; host or cells: HEK-293 T cells
T1 sequence (P55085 26-397): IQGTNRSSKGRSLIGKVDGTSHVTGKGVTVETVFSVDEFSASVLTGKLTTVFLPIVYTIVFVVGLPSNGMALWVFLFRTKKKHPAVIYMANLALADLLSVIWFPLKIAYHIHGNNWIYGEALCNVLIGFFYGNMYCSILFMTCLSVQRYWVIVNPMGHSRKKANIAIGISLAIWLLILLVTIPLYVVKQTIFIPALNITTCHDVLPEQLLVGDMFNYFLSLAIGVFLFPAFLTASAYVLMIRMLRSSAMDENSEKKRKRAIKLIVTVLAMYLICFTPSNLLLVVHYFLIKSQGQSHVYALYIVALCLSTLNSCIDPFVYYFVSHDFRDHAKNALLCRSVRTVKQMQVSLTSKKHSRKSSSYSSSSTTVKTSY
Assay: In vitro human PAR-2 functional antagonist activity using calcium assays (Fluo4AM, FLIPR Tetra)
Assay type: cell-based
Conditions: HEK-293 T cells stimulated by an EC80 of the 2-Furoyl-LIGRLO-NH2 peptide after 10 min incubation with compound; 20 concentrations, duplicate, two independent experiments
In short: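 Fluo4AM-loaded HEK-293 T cells were exposed to compound for 10 min to read agonist effect. They were then stimulated with an EC80 of 2-Furoyl-LIGRLO-NH2 and intracellular calcium was recorded for 5 more min on FLIPR. Antagonism was scored against buffer basal and EC80 agonist-alone signals.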

SMILES | pIC50
Cc1cc(N2CCN(C(=O)c3ccc4c(-c5ccc(Cl)c(F)c5)cn(C(C)C)c4n3)C(C)(C)C2)nc(C)c1C(=O)O [Example 97, 6-(4-(3-(4-chloro-3-fluorophenyl)-1-isopropyl-1H-pyrrolo[2,3-b]pyridine-6-carbonyl)-3,3-dimethylpiperazin-1-yl)-2,4-dimethyinicotinic acid] | > 7.70
Cc1cc(N2CCN(C(=O)c3ccc4c(-c5ccc(Cl)c(F)c5)cn(C5CCOCC5)c4n3)C(C)(C)C2)nc(C)c1C(=O)O [Example 98] | > 7.70
Cc1cc(N2CCN(C(=O)c3ccc4c(-c5ccc(Cl)c(F)c5)cn(C(C)(C)C)c4n3)CC2)nc(C)c1C(=O)O [Example 99, 6-(4-(1-(tert-butyl)-3-(4-chloro-3-fluorophenyl)-1H-pyrrolo[2,3-b]pyridine-6-carbonyl)piperazin-1-yl)-2,4-dimethylnicotinic acid] | > 7.70
Cc1cc(NC2CCN(C(=O)c3ccc4c(-c5ccc(Cl)c(F)c5)cn(C(C)(C)C)c4n3)CC2)nc(C)c1C(=O)O [Example 100, 6-((1-(1-(tert-butyl)-3-(4-chloro-3-fluorophenyl)-1H-pyrrolo[2,3-b]pyridine-6-carbonyl)piperidin-4-yl)amino)-2,4-dimethylnicotinic acid] | 5.00 to 7.70
Cc1cc(N2CC3CN(C(=O)c4ccc5c(-c6ccc(Cl)c(F)c6)cn(C(C)(C)C)c5n4)C3C2)nc(C)c1C(=O)O (stereo not drawn) [Example 101, 6-(6-(1-(tert-butyl)-3-(4-chloro-3-fluorophenyl)-1H-pyrrolo[2,3-b]pyridine-6-carbonyl)-3,6-diazabicyclo[3.2.0]heptan-3-yl)-2,4-dimethylnicotinic acid] | 5.00 to 7.70
Cc1cc(N2CCN(C(=O)c3ccc4c(-c5ccc(Cl)c(F)c5)cn(C(C)(C)CO)c4n3)C(C)(C)C2)nc(C)c1C(=O)O [Example 102, 6-(4-(3-(4-chloro-3-fluorophenyl)-1-(1-hydroxy-2-methylpropan-2-yl)-1H-pyrrolo[2,3-b]pyridine-6-carbonyl)-3,3-dimethylpiperazin-1-yl)-2,4-dimethylnicotinic acid] | 5.00 to 7.70
Cc1cc(N2CCN(C(=O)c3ccc4c(-c5ccc(Cl)c(F)c5)cn(Cc5cnccn5)c4n3)C(C)(C)C2)nc(C)c1C(=O)O [Example 103, 6-(4-(3-(4-chloro-3-fluorophenyl)-1-(pyrazin-2-ylmethyl)-1H-pyrrolo[2,3-b]pyridine-6-carbonyl)-3,3-dimethylpiperazin-1-yl)-2,4-dimethylnicotinic acid] | 5.00 to 7.70
Cc1cc(N2CCN(C(=O)c3ccc4c(-c5ccc(Cl)c(F)c5)c(C)n(CC(C)C)c4n3)C(C)(C)C2)nc(C)c1C(=O)O [Example 104, 6-(4-(3-(4-chloro-3-fluorophenyl)-1-isobutyl-2-methyl-1H-pyrrolo[2,3-b]pyridine-6-carbonyl)-3,3-dimethylpiperazin-1-yl)-2,4-dimethylnicotinic acid] | > 7.70
COc1ccc(-c2cn(CC(C)C)c3nc(C(=O)N4CCNC(=O)C4(C)C)ccc23)cn1 [Example 105, 4-(1-isobutyl-3-(6-methoxypyridin-3-yl)-1H-pyrrolo[2,3-b]pyridine-6-carbonyl)-3,3-dimethylpiperazin-2-one] | 5.00 to 7.70
CC(C)Cn1cc(-c2ccc(C#N)cc2)c2ccc(C(=O)N3CCNC(=O)C3(C)C)nc21 [Example 106, 4-(6-(2,2-dimethyl-3-oxopiperazine-1-carbonyl)-1-isobutyl-1H-pyrrolo[2,3-b]pyridin-3-yl)benzonitrile] | 5.00 to 7.70
CC(C)Cn1cc(-c2ccc(Cl)c(Cl)c2)c2ccc(C(=O)N3CCNC(=O)C3(C)C)nc21 [Example 107, 4-(3-(3,4-dichlorophenyl)-1-isobutyl-1H-pyrrolo[2,3-b]pyridine-6-carbonyl)-3,3-dimethylpiperazin-2-one] | > 7.70
CC(C)Cn1cc(-c2ccccc2OC(F)(F)F)c2ccc(C(=O)N3CCNC(=O)C3(C)C)nc21 [Example 112, 4-(1-isobutyl-3-(2-(trifluoromethoxy)phenyl)-1H-pyrrolo[2,3-b]pyridine-6-carbonyl)-3,3-dimethylpiperazin-2-one] | 5.00 to 7.70
CC(C)Cn1cc(-c2ccccc2F)c2ccc(C(=O)N3CCNC(=O)C3(C)C)nc21 [Example 113, 4-(3-(2-fluorophenyl)-1-isobutyl-1H-pyrrolo[2,3-b]pyridine-6-carbonyl)-3,3-dimethylpiperazin-2-one] | 5.00 to 7.70
CC(C)Cn1cc(-c2cccc(F)c2)c2ccc(C(=O)N3CCNC(=O)C3(C)C)nc21 [Example 114, 4-(3-(3-fluorophenyl)-1-isobutyl-1H-pyrrolo[2,3-b]pyridine-6-carbonyl)-3,3-dimethylpiperazin-2-one] | 5.00 to 7.70
CC(C)Cn1cc(-c2ccc(Cl)cc2F)c2ccc(C(=O)N3CCNC(=O)C3(C)C)nc21 [Example 115, 4-(3-(4-chloro-2-fluorophenyl)-1-isobutyl-1H-pyrrolo[2,3-b]pyridine-6-carbonyl)-3,3-dimethylpiperazin-2-one] | 5.00 to 7.70
CC(C)Cn1cc(-c2ccc(OC(F)(F)F)cc2)c2ccc(C(=O)N3CCNC(=O)C3(C)C)nc21 [Example 116, 4-(1-isobutyl-3-(4-(trifluoromethoxy)phenyl)-1H-pyrrolo[2,3-b]pyridine-6-carbonyl)-3,3-dimethylpiperazin-2-one] | 5.00 to 7.70
CC(C)Cn1cc(-c2cccc(C#N)c2)c2ccc(C(=O)N3CCNC(=O)C3(C)C)nc21 [Example 117, 3-(6-(2,2-dimethyl-3-oxopiperazine-1-carbonyl)-1-isobutyl-1H-pyrrolo[2,3-b]pyridin-3-yl)benzonitrile] | 5.00 to 7.70
Cc1cccc(-c2cn(CC(C)C)c3nc(C(=O)N4CCNC(=O)C4(C)C)ccc23)c1 [Example 118, 4-(1-isobutyl-3-(m-tolyl)-1H-pyrrolo[2,3-b]pyridine-6-carbonyl)-3,3-dimethylpiperazin-2-one] | 5.00 to 7.70
Cc1cc(N2CCN(C(=O)c3ccc4c(-c5ccc(Cl)c(F)c5)c(C)n(C)c4n3)C(C)(C)C2)nc(C)c1C(=O)O [Example 119, 6-(4-(3-(4-chloro-3-fluorophenyl)-1,2-dimethyl-1H-pyrrolo[2,3-b]pyridine-6-carbonyl)-3,3-dimethylpiperazin-1-yl)-2,4-dimethylnicotinic acid] | 5.00 to 7.70
CC1(C)C(=O)NCCN1C(=O)c1ccc2c(-c3ccc(Cl)c(F)c3)cn(Cc3ccncc3)c2n1 [Example 120, 4-(3-(4-chloro-3-fluorophenyl)-1-(pyridin-4-ylmethyl)-1H-pyrrolo[2,3-b]pyridine-6-carbonyl)-3,3-dimethylpiperazin-2-one] | 5.00 to 7.70
Cc1cc(N2CCN(C(=O)c3ccc4c(-c5ccc(Cl)c(F)c5)cn(C5(C)CCC5)c4n3)C(C)(C)C2)nc(C)c1C(=O)O [Example 121, 6-(4-(3-(4-chloro-3-fluorophenyl)-1-(1-methylcyclobutyl)-1H-pyrrolo[2,3-b]pyridine-6-carbonyl)-3,3-dimethylpiperazin-1-yl)-2,4-dimethylnicotinic acid] | > 7.70
Cc1cc(N2CCN(C(=O)c3ccc4c(-c5ccc(Cl)c(F)c5)cn(C)c4n3)C(C)(C)C2)nc(C)c1C(=O)O [Example 122, 6-(4-(3-(4-chloro-3-fluorophenyl)-1-methyl-1H-pyrrolo[2,3-b]pyridine-6-carbonyl)-3,3-dimethylpiperazin-1-yl)-2,4-dimethylnicotinic acid hydrochloride] | 5.00 to 7.70
Cc1cc(NC(=O)C2CCN(C(=O)c3ccc4c(-c5ccc(Cl)c(F)c5)cn(C(C)(C)C)c4n3)CC2)nc(C)c1C(=O)O [Example 123, 6-(1-(1-(tert-butyl)-3-(4-chloro-3-fluorophenyl)-1H-pyrrolo[2,3-b]pyridine-6-carbonyl)piperidine-4-carboxamido)-2,4-dimethylnicotinic acid] | 5.00 to 7.70
CC(C)(C)n1cc(-c2ccc(Cl)c(F)c2)c2ccc(C(=O)N3C[C@@H]4[C@@H](CC(=O)O)[C@@H]4C3)nc21 [Example 124, 2-((1R,5S,6s)-3-(1-(tert-butyl)-3-(4-chloro-3-fluorophenyl)-1H-pyrrolo[2,3-b]pyridine-6-carbonyl)-3-azabicyclo[3.1.0]hexan-6-yl)acetic acid] | > 7.70
CC(C)(C)n1cc(-c2ccc(Cl)c(F)c2)c2ccc(C(=O)N3CCC(CC(=O)O)CC3)nc21 [Example 125, 2-(1-(1-(tert-butyl)-3-(4-chloro-3-fluorophenyl)-1H-pyrrolo[2,3-b]pyridine-6-carbonyl)piperidin-4-yl)acetic acid] | 5.00 to 7.70
CCOCC(C)(C)n1cc(-c2ccc(Cl)c(F)c2)c2ccc(C(=O)N3CCN(c4cc(C)c(C(=O)O)c(C)n4)CC3(C)C)nc21 [Example 126, 6-(4-(3-(4-chloro-3-fluorophenyl)-1-(1-ethoxy-2-methylpropan-2-yl)-1H-pyrrolo[2,3-b]pyridine-6-carbonyl)-3,3-dimethylpiperazin-1-yl)-2,4-dimethylnicotinic acid] | > 7.70
Cc1cc(N2CCCN(C(=O)c3ccc4c(-c5ccc(Cl)c(F)c5)cn(C(C)(C)C)c4n3)CC2)nc(C)c1C(=O)O [Example 127, 6-(4-(1-(tert-butyl)-3-(4-chloro-3-fluorophenyl)-1H-pyrrolo[2,3-b]pyridine-6-carbonyl)-1,4-diazepan-1-yl)-2,4-dimethylnicotinic acid] | 5.00 to 7.70
